Experimental data published in patent publication US11911394B2, “Compound and method for the prevention of transmission of influenza virus” (Hoffmann-La Roche Inc., priority 2019, dated 2024).

Legend:
Type in all cases: in vivo
[1] = test system: influenza A virus A/England/195/2009; test: Example 1 ferret transmission study (direct contact and respiratory droplet), plaque assay of nasal wash; settings: for Donor ferrets positive for influenza as detected by the plaque assay: donor ferrets treated 24 h post infection; for Donor ferrets positive for influenza as detected by the plaque assay / Sentinel DC ferrets positive for influenza as detected by the plaque assay / Sentinel RD ferrets positive for influenza as detected by the plaque assay: positive/total; for respiratory droplet transmission: from treated donor ferrets to sentinels; for mean time to virus shedding, direct contact sentinels: sentinels exposed to treated donors, control 4.25 days; for Sentinel DC ferrets positive for influenza as detected by the plaque assay: untreated direct contact sentinels of treated donors; for mean time to virus shedding, respiratory droplet exposed sentinels: untreated donors 4.5 days, baloxavir value from the one infected sentinel; for Sentinel RD ferrets positive for influenza as detected by the plaque assay: untreated respiratory droplet sentinels of treated donors
[2] = test system: Influenza A/Perth/265/2009 H1N1pdm09 virus; test: Example 2 ferret contact transmission study, TCID50 assay of nasal wash; settings: for treated donors TCID50-positive (shedding detectable infectious virus) at donor endpoint: Example 2, all experiment schedules (Experiments 1-3); for recipient ferrets shedding detectable infectious virus (TCID50) following contact exposure to donor: donor treated 1 DPI; for recipient ferrets shedding detectable infectious virus (TCID50) following contact exposure to donor / donors shedding detectable infectious virus (TCID50) at 3 DPI endpoint / donors shedding detectable infectious virus (TCID50) at 4 DPI endpoint / ferrets shedding infectious virus (TCID50), FIG. 13A recipient results / donors shedding infectious virus (TCID50) at 4 DPI endpoint: positive/total; for donors shedding detectable infectious virus (TCID50) at 3 DPI endpoint / donors shedding detectable infectious virus (TCID50) at 4 DPI endpoint: treatment 1 DPI; for donor group titer (TCID50) compared to placebo group: baloxavir at 2 DPI (p≤0.05), 3 DPI and 4 DPI (p≤0.001), oseltamivir on 2-4 DPI; for ferrets shedding infectious virus (TCID50), FIG. 13A recipient results: donor treated 2 DPI, printed as donors at 4 DPI endpoint; for donors shedding infectious virus (TCID50) at 4 DPI endpoint: treatment 2 DPI; for effect of donor treatment on contact transmission to naïve ferrets: Example 2 Experiments 1-3
[3] = test system: Influenza A/Perth/265/2009 H1N1pdm09 virus; test: Example 2 ferret contact transmission study, quantitative real-time RT-PCR of nasal wash; settings: for donor viral copy numbers (qRT-PCR) compared to placebo: 3 DPI (p≤0.05), nasal wash; for recipients with influenza virus RNA detected (qRT-PCR) / ferrets with viral RNA detected (qRT-PCR), FIG. 13B recipient results: positive/total; for ferrets with viral RNA detected (qRT-PCR), FIG. 13B recipient results: Example 2 Experiment 3, printed as donors
Method: The active form baloxavir acid (S-033447, hereafter BXA) and pro-drug oseltamivir phosphate (hereafter OST) was kindly provided by Shionogi & Co., Ltd., Japan. The vehicle for BXA delivery was methyl cellulose (Sigma-Aldrich, Australia) in 0.5 w/v % aqueous solution prepared with sterile water (hereafter MC solution). BXA in suspension with MC solution (1 mg/mL) was prepared using an agate mortar and pestle, and was delivered to reversibly anaesthetised animals in a single treatment consisting of 4 subcutaneous injections at 4 locations on the dorsal region (total dose 4 mg/kg per animal). Animals in the placebo group were dosed identically using MC solution (1 mL/kg) alone. OST doses (10 mg/mL) were prepared in sugar solution (1 g/mL) and delivered bis in die (8 hr interval) to non-sedated ferrets by the oral route (total dose 10 mg/kg/day).
Viral RNA was extracted from 200 μL nasal wash samples using the NucleoMag VET isolation kit (Macherey Nagel) on the KingFisher Flex (ThermoFisher Scientific) platform according to manufacturer's instructions. Influenza virus M gene copy number in 4 μL RNA was determined by quantitative real-time RT-PCR performed using the SensiFAST Probe Lo-ROX One-Step qRT-PCR System Kit (Bioline) on the ABI 7500 Real Time PCR System (Applied Biosystems) under the following cycling conditions: 45° C. for 10 min, 1 cycle; 95° C. for 2 min, 1 cycle; 95° C. for 5 sec then 60° C. for 30 sec, 40 cycles. Sample RNA was quantitated using influenza A RNA standards of known copy number, kindly provided by Seqirus, Australia. Universal influenza A real-time primer/probe sets were kindly provided by CDC Influenza Branch (Atlanta, USA) (sequences available upon request). Results were analysed by 7500 Fast System SDS software v1.5.1.
Data analysis was performed using Graphpad Prism (GraphPad Software, v5.01). Nasal wash viral titres of all ferrets on each day post inoculation/exposure were compared by a matched two-way analysis of variance (ANOVA) followed by Tukey's multiple comparisons test. Quantitative real time RT-PCR was performed on influenza control RNA of known copy number to generate a standard curve (linear regression of influenza cycle threshold (Ct) values vs. copy number). Viral copy numbers present in nasal wash RNA samples on the same assay were calculated using the formula of the standard curve. Influenza A copy numbers for each group of ferrets were compared by a matched two-way ANOVA followed by Tukey's multiple comparisons test. p<0.05 was considered statistically significant.
This study consisted of three separate Experiments using different schedules of antiviral treatment and timing of naïve animal co-housing. In each experiment, twenty-four ferrets were randomly assigned to three groups (n=8): BXA, OST and placebo. Within each group, n=4 ferrets were designated as treated donor ferrets, and n=4 as naïve recipients. On 0 DPI (days post inoculation) for each experiment, all donor ferrets (each individually housed) were intranasally inoculated with influenza A/Perth/265/2009 at […] tissue culture infective doses (TCID50) in 40 μL of phosphate-buffered saline (PBS). As described above, donors in the BXA and placebo groups received a single antiviral treatment, whereas OST-group donors were treated daily until endpoint (excluding cull day). At the designated time point, naïve recipient ferrets were co-housed with treated donor ferrets (1:1 per cage) for a contact exposure period of 48 hr.
Experiment 1: Antiviral treatment for all donors commenced at 1 DPI, and naïve recipient ferrets were co-housed immediately following treatment. Body weight and temperature were monitored daily from all animals. Daily nasal wash samples were collected 1 mL of PBS from 1 DPI to 3 DPI for donor animals, and 1 day post exposure (DPE) to 10 DPE for recipient animals. Donors were sacrificed at 3 DPI (2 DPE), and blood was collected from BXA- and placebo-treated ferrets by cardiac puncture. […]

[4] = Example 2 Experiment 1, baloxavir at 2 DPI (p≤0.05) and 3 DPI (p≤0.001)
[5] = Example 2 Experiment 1, co-housing 1 DPI
[6] = Example 2 Experiment 2, co-housing 2 DPI
[7] = Example 2 Experiment 3, baloxavir at 3 and 4 DPI (p≤0.001), oseltamivir on 3 DPI (p≤0.05)
[8] = Example 2 Experiment 3, co-housing 2 DPI

| SMILES | Donor ferrets positive for influenza as detected by the plaque assay [1] | respiratory droplet transmission [1] [%] | mean time to virus shedding, direct contact sentinels [1] [days] | Sentinel DC ferrets positive for influenza as detected by the plaque assay [1] | mean time to virus shedding, respiratory droplet exposed sentinels [1] [days] | Sentinel RD ferrets positive for influenza as detected by the plaque assay [1] | treated donors TCID50-positive (shedding detectable infectious virus) at donor endpoint [2] | donor group titer (TCID50) compared to placebo-group [2, 4] | recipient ferrets shedding detectable infectious virus (TCID50) following contact exposure to donor [2, 5] | donors shedding detectable infectious virus (TCID50) at 3 DPI endpoint ([2]; Example 2 Experiment 1) | donor group titer (TCID50) compared to placebo group ([2]; Example 2 Experiment 2) | recipient ferrets shedding detectable infectious virus (TCID50) following contact exposure to donor [2, 6] | donors shedding detectable infectious virus (TCID50) at 4 DPI endpoint ([2]; Example 2 Experiment 2) | donor group titer (TCID50) compared to placebo-group [2, 7] | ferrets shedding infectious virus (TCID50), FIG. 13A recipient results [2, 8] | donors shedding infectious virus (TCID50) at 4 DPI endpoint ([2]; Example 2 Experiment 3) | effect of donor treatment on contact transmission to naïve ferrets [2] | donor viral copy numbers (qRT-PCR) compared to placebo ([3]; Example 2 Experiment 1) | recipients with influenza virus RNA detected (qRT-PCR) ([3]; Example 2 Experiment 1) | recipients with influenza virus RNA detected (qRT-PCR) ([3]; Example 2 Experiment 2) | other results |
| --- | --- | --- | --- | --- | --- | --- | --- | --- | --- | --- | --- | --- | --- | --- | --- | --- | --- | --- | --- | --- | --- |
| O=C1c2c(O)c(=O)ccn2N([C@@H]2c3ccccc3SCc3c2ccc(F)c3F)[C@@H]2COCCN12 [baloxavir, baloxavir acid] | 3/4 | 25 | 5.5 | 4/4 | 8 | 1/4 | 0/4 and No | significantly lower | 1/4 | 0/4 | significantly lower | 1/4 | 0/4 | significantly lower | 2/4 | 0/4 | reduces | significantly reduced | 2/4 | 1/4 | mean viral titres compared to the placebo-group ([2]; Example 2, 24 hours following treatment, all experiment conditions (p≤0.05)): significantly reduced; frequency of infectious viral shedding in recipients ([2]; Example 2, donor treatment at 1 DPI): 25%; frequency of infectious viral shedding in recipients ([2]; Example 2, donor treatment at 2 DPI): 50%; infectious virus titers in the URT compared to both placebo and oseltamivir ([2]; Example 2, three independent experiments, single treatment of infected ferrets): significantly reduced; reduction in transmission ([2]; Example 2, treatment 48 hr post infection): 50%; reduction of transmission ([2]; Example 2, treatment within 24 hr of infection): 75%; donor group titer (TCID50) compared to oseltamivir group ([2]; Example 2 Experiment 2, 3-4 DPI (p≤0.01)): significantly lower; donor group titer (TCID50) compared to oseltamivir-group ([2]; Example 2 Experiment 3, 4 DPI (p≤0.001)): lower; donor mean viral copy number (qRT-PCR) ([3]; Example 2 Experiment 2, 3 DPI, no differences at any other days): reduced; ferrets with viral RNA detected (qRT-PCR), FIG. 13B recipient results [3]: 3/4 |
| CCOC(=O)C1=C[C@@H](OC(CC)CC)[C@H](NC(C)=O)[C@@H](N)C1 [oseltamivir, oseltamivir phosphate, reference compound] | 4/4 | 100 | 5.5 | 4/4 | 9.3 | 3/4 | 4/4 | no significant difference | 4/4 | 4/4 | no difference | 4/4 | 4/4 | significantly lower | 4/4 | 4/4 | does not reduce | significantly reduced | 4/4 | 4/4 | recipients demonstrating evidence of infection by TCID50, qRT-PCR and serology ([2]; Example 2, all experimental conditions): 100%; ferrets with viral RNA detected (qRT-PCR), FIG. 13B recipient results [3]: 4/4 |
